Values of other authors in paper PMC8250858, “A Systematic Study of the Stability, Safety, and Efficacy of the de novo Designed Antimicrobial Peptide PepD2 and Its Modified Derivatives Against Acinetobacter baumannii” (Frontiers in Microbiology, 2021).

Columns and labels:
[1] = test system: carbapenem-resistant A. baumannii; parameters: method as in Huang et al., 2012; settings: intraperitoneal injection twice a day for 3 days; ref Huang et al., 2012; cited from earlier work
[2] = test system: 20 strains of A. baumannii; parameters: method as in Huang et al., 2012; settings: ref Huang et al., 2012; cited from earlier work

What does the source list for C(LLKK)2C?
Mice rescued [1]: rescued half of the mice; MIC against 20 strains of A. baumannii [2]: 40 to 75 µg/mL
